According to US20200369728A1, “PEPTIDOMIMETIC MACROCYCLES AND USES THEREOF” (Aileron Therapeutics, Inc., priority 2015, published 2020):
Bridge positions count the residues as written; N and C are the ends. Square brackets hold non-standard residues; d marks the D form. Peptide text beside a SMILES is read from it. R8 = C=CCCCCCC[C@@](C)(N)C(=O)O; Cba = N[C@@H](CC1CCC1)C(=O)O; Chg = N[C@H](C(=O)O)C1CCCCC1; hLeu = CC(C)CC[C@H](N)C(=O)O; S5 = C=CCCC[C@](C)(N)C(=O)O; Nle = CCCC[C@H](N)C(=O)O

Key:
[1] = system: SJSA-1 cells; test: Cell lysis by peptidomimetic macrocycles (LDH release); type: cell-based; details: SJSA-1, 1 h
Description: SJSA-1 cells were plated out one day in advance in clear flat-bottom plates (Costar, catalog number 353072) at 7500 cells/well with 100 ul/well of growth media, leaving row H columns 10-12 empty for media alone. On the day of the assay, media was exchanged with RPMI 1% FBS media, 90 uL of media per well.
10 mM stock solutions of the peptidomimetic macrocycles were prepared in 100% DMSO. Peptidomimetic macrocycles were then diluted serially in 100% DMSO, and then further diluted 20-fold in sterile water to prepare working stock solutions in 5% DMSO/water of each peptidomimetic macrocycle at concentrations ranging from 500 μM to 62.5 μM.
10 μL of each compound was added to the 90 uL of SJSA-1 cells to yield final concentrations of 50 μM to 6.25 μM in 0.5% DMSO-containing media. The negative control (non-lytic) sample was 0.5% DMSO alone and positive control (lytic) samples include 10 μM Melittin and 1% Triton X-100.
Cell plates were incubated for 1 hour at 37° C. After the 1 hour incubation, the morphology of the cells is examined by microscope and then the plates were centrifuged at 1200 rpm for 5 minutes at room temperature. 40 μL of supernatant for each peptidomimetic macrocycle and control sample is transferred to clear assay plates. LDH release is measured using the LDH cytotoxicity assay kit from Caymen, catalog #1000882.

[2] = system: Caspase 3; test: Caspase 3 detection assay in SJSA1 cells; type: cell-based; details: SJSA1, 48 h, Caspase 3 activation over DMSO-treated cells

Row | Structure (SMILES) | 6.25 μM % Lysed cells (1 h LDH) [1] [%] | 25 μM % Lysed cells (1 h LDH) [1] [%] | 50 μM % Lysed cells (1 h LDH) [1] [%] | caspase 0.3 μM [2] | caspase 3 μM [2] | caspase 10 μM [2] | caspase 30 μM [2]
1 | CC[C@H](C)[C@H](NC(=O)[C@H](C)NC(=O)[C@H](C)NC(=O)[C@]1(C)CCCC=CCCCCCC[C@@](C)(NC(=O)[C@H](Cc2ccccc2)NC(=O)[C@@H](NC(=O)[C@H](CC(C)C)NC(C)=O)[C@@H](C)O)C(=O)N[C@@H](C)C(=O)N[C@@H](Cc2ccc(O)cc2)C(=O)N[C@@H](Cc2c[nH]c3ccccc23)C(=O)N[C@@H](C)C(=O)N[C@@H](C)C(=O)N[C@@H](CC(C)C)C(=O)N1)C(=O)N[C@H](C)C(N)=O (single isomer, unassigned) [compound 203] | 0 | 2 | 2 | 1 | 3 | 12 | 10
2 | CCCC[C@H](NC(=O)[C@H](C)NC(=O)[C@H](CO)NC(=O)[C@]1(C)CCCC=CCCCCCC[C@@](C)(NC(=O)[C@H](Cc2ccccc2)NC(=O)[C@@H](NC(=O)[C@H](CC(C)C)NC(C)=O)[C@@H](C)O)C(=O)N[C@@H](CCC(=O)O)C(=O)N[C@@H](Cc2ccc(O)cc2)C(=O)N[C@@H](Cc2c[nH]c3ccccc23)C(=O)N[C@@H](CO)C(=O)N[C@@H](CCC(N)=O)C(=O)N[C@@H](CC2CCC2)C(=O)N1)C(=O)N[C@@H](C)C(N)=O [compound 245] (Ac-LTF[R8]EYWSQ[Cba][S5]SA[Nle]A-NH2; staple 4-11) | 1 | 11 | 56 | 1 | 3 | 9 | 16
3 | CC[C@H](C)[C@H](NC(=O)[C@H](C)NC(=O)[C@H](CO)NC(=O)[C@]1(C)CCCC=CCCCCCC[C@@](C)(NC(=O)[C@H](Cc2ccccc2)NC(=O)[C@@H](NC(=O)[C@H](CC(C)C)NC(C)=O)[C@@H](C)O)C(=O)N[C@@H](C)C(=O)N[C@@H](Cc2ccc(O)cc2)C(=O)N[C@@H](Cc2c[nH]c3ccccc23)C(=O)N[C@@H](C)C(=O)N[C@@H](CCC(N)=O)C(=O)N[C@@H](CC(C)C)C(=O)N1)C(N)=O [compound 8] (Ac-LTF[R8]AYWAQL[S5]SAI-NH2; staple 4-11) | −1 | 1 | 1 | – | 1 | 19 | 25
4 | CSCC[C@H](NC(=O)[C@H](C)NC(=O)[C@H](C)NC(=O)[C@]1(C)CCCC=CCCCCCC[C@@](C)(NC(=O)[C@H](Cc2ccccc2)NC(=O)[C@@H](NC(=O)[C@H](CC(C)C)NC(C)=O)[C@@H](C)O)C(=O)N[C@@H](C)C(=O)N[C@@H](Cc2ccc(O)cc2)C(=O)N[C@@H](Cc2c[nH]c3ccccc23)C(=O)N[C@@H](C)C(=O)N[C@@H](C)C(=O)N[C@@H](CC(C)C)C(=O)N1)C(=O)N[C@H](C)C(N)=O [compound 72] (Ac-LTF[R8]AYWAAL[S5]AAM[dA]-NH2; staple 4-11) | 2 | 0 | 3 | 1 | 1 | 4 | 10
5 | CC[C@H](C)[C@H](NC(=O)[C@H](C)NC(=O)[C@H](C)NC(=O)[C@]1(C)CCCC=CCCCCCC[C@@](C)(NC(=O)[C@H](Cc2ccccc2)NC(=O)[C@@H](NC(=O)[C@H](CC(C)C)NC(C)=O)[C@@H](C)O)C(=O)N[C@@H](CCC(=O)O)C(=O)N[C@@H](Cc2ccc(C(=O)O)cc2)C(=O)N[C@@H](Cc2c[nH]c3cc(Cl)ccc23)C(=O)N[C@@H](C)C(=O)N[C@@H](CCC(N)=O)C(=O)N[C@@H](CC2CCC2)C(=O)N1)C(=O)N[C@H](C)C(N)=O (single isomer, unassigned) [compound 336] | 0 | 0 | 0 | – | – | – | –
6 | CCCC[C@H](NC(=O)[C@H](C)NC(=O)[C@H](CO)NC(=O)[C@]1(C)CCCC=CCCCCCC[C@@](C)(NC(=O)[C@H](Cc2ccccc2)NC(=O)[C@@H](NC(=O)[C@H](CC(C)C)NC(C)=O)[C@@H](C)O)C(=O)N[C@@H](C)C(=O)N[C@@H](Cc2ccc(O)cc2)C(=O)N[C@@H](Cc2c[nH]c3ccccc23)C(=O)N[C@@H](C)C(=O)N[C@@H](CCC(N)=O)C(=O)N[C@@H](CC(C)C)C(=O)N1)C(N)=O [compound 3] (Ac-LTF[R8]AYWAQL[S5]SA[Nle]-NH2; staple 4-11) | 1 | 1 | 3 | – | – | – | –
7 | CC[C@H](C)[C@H](NC(=O)[C@H](C)NC(=O)[C@H](C)NC(=O)[C@]1(C)CCCC=CCCCCCC[C@@](C)(NC(=O)[C@H](Cc2ccccc2)NC(=O)[C@@H](NC(=O)[C@H](CC(C)C)NC(C)=O)[C@@H](C)O)C(=O)N[C@@H](CCC(=O)O)C(=O)N[C@@H](Cc2ccc(O)cc2)C(=O)N[C@@H](Cc2c[nH]c3ccccc23)C(=O)N[C@@H](C)C(=O)N[C@@H](CCC(N)=O)C(=O)N[C@@H](CC(C)C)C(=O)N1)C(=O)N[C@H](C)C(N)=O (single isomer, unassigned) [compound 217] | 2 | 1 | 2 | – | – | – | –
8 | CC(=O)N[C@@H](CC(C)C)C(=O)N[C@H](C(=O)N[C@@H](Cc1ccccc1)C(=O)N[C@]1(C)CCCCCCC=CCCC[C@@](C)(C(=O)N[C@@H](C)C(=O)N[C@@H](Cc2c[nH]cn2)C(=O)N[C@@H](Cc2ccccc2)C(=O)N[C@@H](C)C(N)=O)NC(=O)[C@H](CC(C)C)NC(=O)[C@H](CCC(N)=O)NC(=O)[C@H](C(C)C)NC(=O)[C@H](Cc2c[nH]c3ccccc23)NC(=O)[C@H](Cc2c[nH]cn2)NC(=O)[C@H](C)NC1=O)[C@@H](C)O [compound 190] (Ac-LTF[R8]AHWVQL[S5]AHFA-NH2; staple 4-11) | −1 | 0 | 1 | – | – | – | –
9 | CC(=O)N[C@@H](CC(C)C)C(=O)N[C@H](C(=O)N[C@@H](Cc1ccccc1)C(=O)N[C@]1(C)CCCCCCC=CCCC[C@@](C)(C(=O)N[C@@H](CO)C(=O)N[C@@H](C)C(=O)N[C@@H](CCC(C)C)C(N)=O)NC(=O)[C@H](CC(C)C)NC(=O)[C@H](CCC(N)=O)NC(=O)[C@H](C)NC(=O)[C@H](Cc2c[nH]c3ccccc23)NC(=O)[C@H](Cc2ccc(O)cc2)NC(=O)[C@H](C)NC1=O)[C@@H](C)O [compound 6] (Ac-LTF[R8]AYWAQL[S5]SA[hLeu]-NH2; staple 4-11) | 1 | 1 | 1 | – | – | – | –
10 | CC(=O)N[C@@H](Cc1c[nH]cn1)C(=O)N[C@@H](CC(C)C)C(=O)N[C@H](C(=O)N[C@@H](Cc1ccccc1)C(=O)N[C@]1(C)CCCCCCC=CCCC[C@@](C)(C(=O)N[C@@H](C)C(=O)N[C@@H](C)C(=O)N[C@@H](CCC(C)C)C(=O)N[C@@H](C)C(N)=O)NC(=O)[C@H](CC(C)C)NC(=O)[C@H](CCC(N)=O)NC(=O)[C@H](Cc2c[nH]cn2)NC(=O)[C@H](Cc2c[nH]c3ccccc23)NC(=O)[C@H](Cc2c[nH]cn2)NC(=O)[C@H](Cc2c[nH]cn2)NC1=O)[C@@H](C)O [compound 32] (Ac-HLTF[R8]HHWHQL[S5]AA[hLeu]A-NH2; staple 5-12) | 0 | 2 | 0 | – | – | – | –
11 | CC[C@H](C)[C@H](NC(=O)[C@H](C)NC(=O)[C@H](C)NC(=O)[C@]1(C)CCCC=CCCCCCC[C@@](C)(NC(=O)[C@H](Cc2ccccc2)NC(=O)[C@@H](NC(=O)[C@H](CC(C)C)NC(C)=O)[C@@H](C)O)C(=O)N[C@@H](C)C(=O)N[C@@H](Cc2ccc(C(=O)O)cc2)C(=O)N[C@@H](Cc2c[nH]c3ccccc23)C(=O)N[C@@H](C)C(=O)N[C@@H](CCC(N)=O)C(=O)N[C@@H](CC(C)C)C(=O)N1)C(=O)N[C@H](C)C(N)=O (single isomer, unassigned) [compound 182] | 0 | 3 | 6 | – | – | – | –
12 | CC(=O)N[C@@H](CC(C)C)C(=O)N[C@H](C(=O)N[C@@H](Cc1ccccc1)C(=O)N[C@]1(C)CCCCCCC=CCCC[C@@](C)(C(=O)N[C@@H](CO)C(=O)N[C@@H](C)C(=O)N[C@H](C(N)=O)C2CCCCC2)NC(=O)[C@H](CC(C)C)NC(=O)[C@H](CCC(N)=O)NC(=O)[C@H](C)NC(=O)[C@H](Cc2c[nH]c3ccccc23)NC(=O)[C@H](Cc2ccc(O)cc2)NC(=O)[C@H](C)NC1=O)[C@@H](C)O [compound 9] (Ac-LTF[R8]AYWAQL[S5]SA[Chg]-NH2; staple 4-11) | −3 | 0 | 2 | – | – | – | –
13 | CC[C@H](C)[C@H](NC(=O)[C@H](C)NC(=O)[C@H](C)NC(=O)[C@]1(C)CCCC=CCCCCCC[C@@](C)(NC(=O)[C@H](Cc2ccccc2)NC(=O)[C@@H](NC(=O)[C@H](CCC(=O)O)NC(C)=O)[C@@H](C)O)C(=O)N[C@@H](CCC(=O)O)C(=O)N[C@@H](Cc2c[nH]cn2)C(=O)N[C@@H](Cc2c[nH]c3ccccc23)C(=O)N[C@@H](C)C(=O)N[C@@H](CCC(N)=O)C(=O)N[C@@H](CC(C)C)C(=O)N1)C(=O)N[C@H](C)C(N)=O (single isomer, unassigned) [compound 174] | 5 | 2 | 5 | – | – | – | –
